# Tests used:
# Format in all cases: in vivo
# [1] = test system: field corn (Zea mays L., var. Dekalb 535, CORN); test: Pre-emerge test, crop safety
# Procedure, shortened: (§1)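 Fourteen days after spraying, crop and weed injury was graded visually from 0, no effect, to 100, every plant dead. Test substances were dissolved in acetone and applied at 15–1000 g ai/ha with a flat-fan nozzle. Application was either pre-emergence, one day after sowing, or post-emergence at the 2–3 leaf stage.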
# [2] = test system: upland rice (Oryza sp., var. Tebonnet, RICE); test: Pre-emerge test, crop safety
# Procedure, shortened: as §1
# [3] = test system: field corn (Zea mays L., var. Dekalb 535, CORN); test: Post-emerge test, crop safety; conditions: post-emerge; for phytotoxicity rating CORN (crop damage): 14 days after application, rating scale 0-100; for Post-emerge Herbicidal Activity CORN: crop damage rating 0-100 at 14 days after application
# Procedure, shortened: (§2)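 Applied at 15–1000 g ai/ha from acetone in 187 l/ha spray volume. Post-emergence applications included 0.25% v/v non-ionic surfactant and reached plants sown 8–21 days before. Pre-emergence applications were incorporated by surface watering. Efficacy or crop damage was rated on a 0–100 scale after 14 days.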
# [4] = test system: upland rice (Oryza sp., var. Tebonnet, RICE); test: Post-emerge test, crop safety; conditions: post-emerge; for phytotoxicity rating RICE (crop damage): 14 days after application, rating scale 0-100; for Post-emerge Herbicidal Activity RICE: crop damage rating 0-100 at 14 days after application
# Procedure, shortened: as §2
# [5] = test system: redroot pigweed (Amaranthus retroflexus, AMARE); test: Pre-emerge test, greenhouse herbicide activity screening
# Procedure, shortened: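 Plants grown in 10 cm pots of sandy loam mix received acetone-dissolved compounds through a moving flat-fan nozzle. Doses ranged from 15 to 1000 g ai/ha. Pre-emerge pots were seeded one day earlier, post-emerge pots 8–21 days earlier. Fourteen days on, each pot was graded 0–100 for damage.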
# [6] = test system: johnsongrass (Sorghum halepense, SORHA); test: as above
# Procedure, shortened: as §2
# [7] = test system: large crabgrass (Digitaria sanguinalis, DIGSA); test: as above
# Procedure, shortened: as §2
# [8] = test system: velvetleaf (Abutilon theophrasti, ABUTH); test: as above
# Procedure, shortened: as §2
# [9] = test system: green foxtail (Setaria viridis, SETVI); test: as above
# Procedure, shortened: as §2
# [10] = test system: sicklepod (Cassia obtusifolia, CASOB); test: as above
# Procedure, shortened: as §2
# [11] = test system: barnyardgrass (Echinochloa crus-galli, ECHCG); test: as above
# Procedure, shortened: as §2
# [12] = test system: ivyleaf morningglory (Ipomoea hederacea, IPOHE); test: as above
# Procedure, shortened: as §2
# [13] = test system: lambsquarters (Chenopodium album, CHEAL); test: as above
# Procedure, shortened: as §2
# [14] = test system: johnsongrass (Sorghum halepense, SORHA); test: Post-emerge test, greenhouse herbicide activity screening; conditions: post-emerge; for phytotoxicity rating SORHA: 14 days after application, rating scale 0-100; for Post-emerge Herbicidal Activity SORHA: phytotoxicity rating 0-100 at 14 days after application
# Procedure, shortened: as §2
# [15] = test system: redroot pigweed (Amaranthus retroflexus, AMARE); test: as above; conditions: post-emerge; for phytotoxicity rating AMARE: 14 days after application; for Post-emerge Herbicidal Activity AMARE: phytotoxicity rating 0-100 at 14 days after application
# Procedure, shortened: as §2
# [16] = test system: large crabgrass (Digitaria sanguinalis, DIGSA); test: as above; conditions: post-emerge; for phytotoxicity rating DIGSA: 14 days after application, rating scale 0-100; for Post-emerge Herbicidal Activity DIGSA: phytotoxicity rating 0-100 at 14 days after application
# Procedure, shortened: as §2
# [17] = test system: velvetleaf (Abutilon theophrasti, ABUTH); test: as above; conditions: post-emerge; for phytotoxicity rating ABUTH: 14 days after application, rating scale 0-100; for Post-emerge Herbicidal Activity ABUTH: phytotoxicity rating 0-100 at 14 days after application
# Procedure, shortened: as §2
# [18] = test system: green foxtail (Setaria viridis, SETVI); test: as above; conditions: post-emerge; for phytotoxicity rating SETVI: 14 days after application, rating scale 0-100; for Post-emerge Herbicidal Activity SETVI: phytotoxicity rating 0-100 at 14 days after application
# Procedure, shortened: as §2
# [19] = test system: sicklepod (Cassia obtusifolia, CASOB); test: as above; conditions: post-emerge; for phytotoxicity rating CASOB: 14 days after application, rating scale 0-100; for Post-emerge Herbicidal Activity CASOB: phytotoxicity rating 0-100 at 14 days after application
# Procedure, shortened: as §2
# [20] = test system: barnyardgrass (Echinochloa crus-galli, ECHCG); test: as above; conditions: post-emerge; for phytotoxicity rating ECHCG: 14 days after application, rating scale 0-100; for Post-emerge Herbicidal Activity ECHCG: phytotoxicity rating 0-100 at 14 days after application
# Procedure, shortened: as §2
# [21] = test system: ivyleaf morningglory (Ipomoea hederacea, IPOHE); test: as above; conditions: post-emerge; for phytotoxicity rating IPOHE: 14 days after application, rating scale 0-100; for Post-emerge Herbicidal Activity IPOHE: phytotoxicity rating 0-100 at 14 days after application
# Procedure, shortened: as §2
# [22] = test system: lambsquarters (Chenopodium album, CHEAL); test: as above; conditions: post-emerge; for phytotoxicity rating CHEAL: 14 days after application, rating scale 0-100; for Post-emerge Herbicidal Activity CHEAL: phytotoxicity rating 0-100 at 14 days after application
# Procedure, shortened: as §2
# [23] = 63 g ai/ha, crop damage rating 0-100, 14 days after application
# [24] = 250 g ai/ha, crop damage rating 0-100, 14 days after application
# [25] = 63 g ai/ha, phytotoxicity rating 0-100, 14 days after application
# [26] = 250 g ai/ha, phytotoxicity rating 0-100, 14 days after application
# [27] = crop damage, pre-emerge, rate 63 g ai/ha, phytotoxicity rating 0-100 at 14 days after application
# [28] = crop damage, pre-emerge, rate 250 g ai/ha, phytotoxicity rating 0-100 at 14 days after application
# [29] = pre-emerge, rate 63 g ai/ha, phytotoxicity rating 0-100 at 14 days after application
# [30] = pre-emerge, rate 250 g ai/ha, phytotoxicity rating 0-100 at 14 days after application
smiles,measurement,setting,value
COc1c(Cl)cc(F)c(-n2c(=O)cc(C(F)(F)F)n(C)c2=O)c1NC(=O)NCc1ccccc1 [Compound 3-6],Pre-emerge Herbicidal Activity CORN,[1]; [23],0
same,Pre-emerge Herbicidal Activity CORN,[1]; [24],90
same,Pre-emerge Herbicidal Activity RICE,[2]; [23],30
same,Pre-emerge Herbicidal Activity RICE,[2]; [24],80
same,phytotoxicity rating CORN (crop damage),[3]; 63 g ai/ha,20
same,phytotoxicity rating CORN (crop damage),[3]; 250 g ai/ha,70
same,phytotoxicity rating RICE (crop damage),[4]; 63 g ai/ha,30
same,phytotoxicity rating RICE (crop damage),[4]; 250 g ai/ha,70
same,Pre-emerge Herbicidal Activity AMARE,[5]; [25],90
same,Pre-emerge Herbicidal Activity AMARE,[5]; [26],100
same,Pre-emerge Herbicidal Activity SORHA,[6]; [25],30
same,Pre-emerge Herbicidal Activity SORHA,[6]; [26],80
same,Pre-emerge Herbicidal Activity DIGSA,[7]; [25],30
same,Pre-emerge Herbicidal Activity DIGSA,[7]; [26],100
same,Pre-emerge Herbicidal Activity ABUTH,[8]; [25],100
same,Pre-emerge Herbicidal Activity ABUTH,[8]; [26],100
same,Pre-emerge Herbicidal Activity SETVI,[9]; [25],100
same,Pre-emerge Herbicidal Activity SETVI,[9]; [26],100
same,Pre-emerge Herbicidal Activity CASOB,[10]; [25],100
same,Pre-emerge Herbicidal Activity CASOB,[10]; [26],100
same,Pre-emerge Herbicidal Activity ECHCG,[11]; [25],40
same,Pre-emerge Herbicidal Activity ECHCG,[11]; [26],80
same,Pre-emerge Herbicidal Activity IPOHE,[12]; [25],100
same,Pre-emerge Herbicidal Activity IPOHE,[12]; [26],95
same,Pre-emerge Herbicidal Activity CHEAL,[13]; [25],100
same,Pre-emerge Herbicidal Activity CHEAL,[13]; [26],100
same,phytotoxicity rating SORHA,[14]; 63 g ai/ha,0
same,phytotoxicity rating SORHA,[14]; 250 g ai/ha,20
same,phytotoxicity rating AMARE,"[15]; 63 g ai/ha, rating scale 0-100 (0 no damage, 100 complete death)",100
same,phytotoxicity rating AMARE,"[15]; 250 g ai/ha, rating scale 0-100",100
same,phytotoxicity rating DIGSA,[16]; 63 g ai/ha,0
same,phytotoxicity rating DIGSA,[16]; 250 g ai/ha,10
same,phytotoxicity rating ABUTH,[17]; 63 g ai/ha,100
same,phytotoxicity rating ABUTH,[17]; 250 g ai/ha,100
same,phytotoxicity rating SETVI,[18]; 63 g ai/ha,0
same,phytotoxicity rating SETVI,[18]; 250 g ai/ha,40
same,phytotoxicity rating CASOB,[19]; 63 g ai/ha,40
same,phytotoxicity rating CASOB,[19]; 250 g ai/ha,90
same,phytotoxicity rating ECHCG,[20]; 63 g ai/ha,0
same,phytotoxicity rating ECHCG,[20]; 250 g ai/ha,20
same,phytotoxicity rating IPOHE,[21]; 63 g ai/ha,90
same,phytotoxicity rating IPOHE,[21]; 250 g ai/ha,100
same,phytotoxicity rating CHEAL,[22]; 63 g ai/ha,50
same,phytotoxicity rating CHEAL,[22]; 250 g ai/ha,90
CCC(=O)Nc1c(Cl)cc(Cl)c(-n2nc(C)n(C(F)F)c2=O)c1N [Compound 6-19],Pre-emerge Herbicidal Activity CORN,[1]; [27],0
same,Pre-emerge Herbicidal Activity CORN,[1]; [28],0
same,Pre-emerge Herbicidal Activity RICE,[2]; [27],0
same,Pre-emerge Herbicidal Activity RICE,[2]; [28],0
same,Post-emerge Herbicidal Activity CORN,[3]; 63 g ai/ha,0
same,Post-emerge Herbicidal Activity CORN,[3]; 250 g ai/ha,0
same,Post-emerge Herbicidal Activity RICE,[4]; 63 g ai/ha,0
same,Post-emerge Herbicidal Activity RICE,[4]; 250 g ai/ha,0
same,Pre-emerge Herbicidal Activity AMARE,[5]; [29],30
same,Pre-emerge Herbicidal Activity AMARE,[5]; [30],70
same,Pre-emerge Herbicidal Activity SORHA,[6]; [29],0
same,Pre-emerge Herbicidal Activity SORHA,[6]; [30],0
same,Pre-emerge Herbicidal Activity DIGSA,[7]; [29],0
same,Pre-emerge Herbicidal Activity DIGSA,[7]; [30],0
same,Pre-emerge Herbicidal Activity ABUTH,[8]; [29],20
same,Pre-emerge Herbicidal Activity ABUTH,[8]; [30],50
same,Pre-emerge Herbicidal Activity SETVI,[9]; [29],0
same,Pre-emerge Herbicidal Activity SETVI,[9]; [30],10
same,Pre-emerge Herbicidal Activity CASOB,[10]; [29],0
same,Pre-emerge Herbicidal Activity CASOB,[10]; [30],0
same,Pre-emerge Herbicidal Activity ECHCG,[11]; [29],0
same,Pre-emerge Herbicidal Activity ECHCG,[11]; [30],0
same,Pre-emerge Herbicidal Activity IPOHE,[12]; [29],0
same,Pre-emerge Herbicidal Activity IPOHE,[12]; [30],0
same,Pre-emerge Herbicidal Activity CHEAL,[13]; [29],70
same,Pre-emerge Herbicidal Activity CHEAL,[13]; [30],90
same,Post-emerge Herbicidal Activity SORHA,[14]; 63 g ai/ha,0
same,Post-emerge Herbicidal Activity SORHA,[14]; 250 g ai/ha,0
same,Post-emerge Herbicidal Activity AMARE,[15]; 63 g ai/ha,0
same,Post-emerge Herbicidal Activity AMARE,[15]; 250 g ai/ha,30
same,Post-emerge Herbicidal Activity DIGSA,[16]; 63 g ai/ha,0
same,Post-emerge Herbicidal Activity DIGSA,[16]; 250 g ai/ha,0
same,Post-emerge Herbicidal Activity ABUTH,[17]; 63 g ai/ha,0
same,Post-emerge Herbicidal Activity ABUTH,[17]; 250 g ai/ha,50
same,Post-emerge Herbicidal Activity SETVI,[18]; 63 g ai/ha,0
same,Post-emerge Herbicidal Activity SETVI,[18]; 250 g ai/ha,0
same,Post-emerge Herbicidal Activity CASOB,[19]; 63 g ai/ha,0
same,Post-emerge Herbicidal Activity CASOB,[19]; 250 g ai/ha,0
same,Post-emerge Herbicidal Activity ECHCG,[20]; 63 g ai/ha,0
same,Post-emerge Herbicidal Activity ECHCG,[20]; 250 g ai/ha,0
same,Post-emerge Herbicidal Activity IPOHE,[21]; 63 g ai/ha,0
same,Post-emerge Herbicidal Activity IPOHE,[21]; 250 g ai/ha,30
same,Post-emerge Herbicidal Activity CHEAL,[22]; 63 g ai/ha,0
same,Post-emerge Herbicidal Activity CHEAL,[22]; 250 g ai/ha,60
